From patent US10072026B2, “Crystalline form of 3-((1R,3s,5S)-3-((7-((5-methyl-1H-pyrazol-3-yl)amino)-1,6-naphthyridin-5-yl)amino)-8-azabicyclo[3.2.1]octan-8-yl)propanenitrile” (priority 2015, dated 2018)
Like-named read-outs stand apart in the source and are kept apart here.

Experiments:
JAK2 = JAK2 (Homo sapiens (Human), UniProt O60674); assay: LanthaScreen JAK biochemical assay (JAK2)
JAK1 = JAK1 (Homo sapiens (Human), UniProt P23458); assay: LanthaScreen JAK biochemical assay (JAK1)
[1] = system: IL-4 induced STAT6 phosphorylation in THP-1 human monocytic cells; assay: Cellular JAK potency assay, THP-1
[2] = system: oxazolone-induced colitis; assay: Mouse model of oxazolone-induced colitis; type: in vivo, BALB/C mice; conditions: mouse, PO, 1, 3, and/or 10 mg/kg BID
Procedure: Assay 7: Mouse Model of Oxazalone-Induced Colitis
Oxazolone-induced colitis is an experimental model that has a histological resemblance to human ulcerative colitis (Heller et al. Immunology, 2002, 17, 629-638). Adult BALB/C mice from Harlan were used in the assay. On day 1, animals were lightly anesthetized with isoflurane and the hairs between the shoulder were carefully removed before oxazolone (4%, 150 μL, 4:1 acetone:olive oil formulation) or vehicle solution was slowly applied for skin sensitization. Seven days after skin sensitization, the mice were fasted overnight, anesthetized with isoflurane inhalation, and a 1 mL syringe equipped with a 3.5-F catheter, filled with oxazolone solution, was inserted carefully about 4 cm into the colon of the mouse. Following insertion, 50 μL of the oxazolone solution (1%, 1:1 ethanol:water formulation) was injected very slowly (over 30 sec using an injection pump) into the colon. The catheter was removed and the mice were held vertically (head down) for 2 min to ensure that the entire oxazolone solution remained inside the colon. Drug treatment (PO, BID or TID) or vehicle was initiated a day prior to the oxazolone intrarectal (IR) challenge. Two-day post oxazolone intrarectal challenge, the Disease Activity Index (DAI) was assessed by treatment-blinded experimenters for each mouse according to the criteria score: stool consistency score (0, normal; 2, loose; 4, diarrhea), gross bleeding score (0, absence; 2, blood tinged; 4, presence), and weight loss score (0, none; 1, 1%-5%; 2, 5%-10%; 3, 10%-20%; 4, more than 20%); DAI=average of (stool consistency score+gross bleeding score+weight loss score).
Selected compounds of the invention were tested in the assay. Efficacy in the model is evidenced by a decrease in DAI score as compared with the score from vehicle treated animals.

JAK3 = JAK3 (Homo sapiens (Human), UniProt P52333); assay: LanthaScreen JAK biochemical assay (JAK3)
[3] = system: IL-13 induced STAT6 phosphorylation in BEAS-2B human lung epithelial cells; assay: AlphaScreen cellular JAK potency assay, BEAS-2B
Tyk2 = Tyk2 (Homo sapiens (Human), UniProt P29597); assay: LanthaScreen JAK biochemical assay (Tyk2); conditions: for Ki: read-out: Tyk 2 (pKi) (converted)
[4] = IL-4 induced STAT6 phosphorylation, THP-1 cells
[5] = read-out: JAK 1 (pKi) (converted)
[6] = Homo sapiens, THP-1, read-out: THP-1 IL4 pIC50 (converted)
[7] = Homo sapiens, BEAS-2B, read-out: BEAS2B pIC50 (converted)
[8] = IL-13 induced STAT6 phosphorylation, BEAS-2B cells
[9] = read-out: JAK 2 (pKi) (converted)
[10] = THP-1 cells, IL-4 induced STAT6 phosphorylation
[11] = BEAS-2B cells, IL-13 induced STAT6 phosphorylation

Sequence of Tyk2 (P29597 whole entry): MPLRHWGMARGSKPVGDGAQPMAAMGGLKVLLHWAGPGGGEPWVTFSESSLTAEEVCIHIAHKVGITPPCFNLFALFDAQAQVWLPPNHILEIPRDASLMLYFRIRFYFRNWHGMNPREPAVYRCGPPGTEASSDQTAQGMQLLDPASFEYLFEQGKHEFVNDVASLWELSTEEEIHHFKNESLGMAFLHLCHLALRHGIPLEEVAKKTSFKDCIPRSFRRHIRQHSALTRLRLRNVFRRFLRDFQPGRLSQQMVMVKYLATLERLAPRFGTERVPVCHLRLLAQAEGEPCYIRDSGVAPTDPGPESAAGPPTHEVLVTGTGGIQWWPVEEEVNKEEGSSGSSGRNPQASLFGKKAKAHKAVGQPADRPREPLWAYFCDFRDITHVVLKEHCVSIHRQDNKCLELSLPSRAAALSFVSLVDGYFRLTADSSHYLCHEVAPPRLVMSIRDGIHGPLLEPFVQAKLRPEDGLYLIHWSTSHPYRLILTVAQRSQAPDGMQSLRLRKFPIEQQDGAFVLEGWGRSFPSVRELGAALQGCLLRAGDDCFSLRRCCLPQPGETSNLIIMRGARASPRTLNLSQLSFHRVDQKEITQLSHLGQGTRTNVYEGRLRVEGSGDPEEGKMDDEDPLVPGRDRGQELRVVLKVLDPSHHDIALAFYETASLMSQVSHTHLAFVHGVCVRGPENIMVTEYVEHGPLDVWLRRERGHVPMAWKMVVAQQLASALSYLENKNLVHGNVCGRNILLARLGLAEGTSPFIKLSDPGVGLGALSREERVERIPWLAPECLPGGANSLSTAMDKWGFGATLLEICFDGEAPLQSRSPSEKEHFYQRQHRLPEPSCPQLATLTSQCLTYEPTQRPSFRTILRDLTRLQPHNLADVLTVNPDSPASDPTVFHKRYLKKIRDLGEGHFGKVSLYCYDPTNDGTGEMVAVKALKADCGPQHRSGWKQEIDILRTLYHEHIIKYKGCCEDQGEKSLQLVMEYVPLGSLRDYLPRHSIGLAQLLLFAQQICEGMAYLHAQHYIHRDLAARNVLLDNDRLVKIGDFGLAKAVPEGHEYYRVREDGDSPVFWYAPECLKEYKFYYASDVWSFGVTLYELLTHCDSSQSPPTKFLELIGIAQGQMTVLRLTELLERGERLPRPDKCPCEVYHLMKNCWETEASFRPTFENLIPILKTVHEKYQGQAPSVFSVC
Sequence of JAK1 (P23458 whole entry): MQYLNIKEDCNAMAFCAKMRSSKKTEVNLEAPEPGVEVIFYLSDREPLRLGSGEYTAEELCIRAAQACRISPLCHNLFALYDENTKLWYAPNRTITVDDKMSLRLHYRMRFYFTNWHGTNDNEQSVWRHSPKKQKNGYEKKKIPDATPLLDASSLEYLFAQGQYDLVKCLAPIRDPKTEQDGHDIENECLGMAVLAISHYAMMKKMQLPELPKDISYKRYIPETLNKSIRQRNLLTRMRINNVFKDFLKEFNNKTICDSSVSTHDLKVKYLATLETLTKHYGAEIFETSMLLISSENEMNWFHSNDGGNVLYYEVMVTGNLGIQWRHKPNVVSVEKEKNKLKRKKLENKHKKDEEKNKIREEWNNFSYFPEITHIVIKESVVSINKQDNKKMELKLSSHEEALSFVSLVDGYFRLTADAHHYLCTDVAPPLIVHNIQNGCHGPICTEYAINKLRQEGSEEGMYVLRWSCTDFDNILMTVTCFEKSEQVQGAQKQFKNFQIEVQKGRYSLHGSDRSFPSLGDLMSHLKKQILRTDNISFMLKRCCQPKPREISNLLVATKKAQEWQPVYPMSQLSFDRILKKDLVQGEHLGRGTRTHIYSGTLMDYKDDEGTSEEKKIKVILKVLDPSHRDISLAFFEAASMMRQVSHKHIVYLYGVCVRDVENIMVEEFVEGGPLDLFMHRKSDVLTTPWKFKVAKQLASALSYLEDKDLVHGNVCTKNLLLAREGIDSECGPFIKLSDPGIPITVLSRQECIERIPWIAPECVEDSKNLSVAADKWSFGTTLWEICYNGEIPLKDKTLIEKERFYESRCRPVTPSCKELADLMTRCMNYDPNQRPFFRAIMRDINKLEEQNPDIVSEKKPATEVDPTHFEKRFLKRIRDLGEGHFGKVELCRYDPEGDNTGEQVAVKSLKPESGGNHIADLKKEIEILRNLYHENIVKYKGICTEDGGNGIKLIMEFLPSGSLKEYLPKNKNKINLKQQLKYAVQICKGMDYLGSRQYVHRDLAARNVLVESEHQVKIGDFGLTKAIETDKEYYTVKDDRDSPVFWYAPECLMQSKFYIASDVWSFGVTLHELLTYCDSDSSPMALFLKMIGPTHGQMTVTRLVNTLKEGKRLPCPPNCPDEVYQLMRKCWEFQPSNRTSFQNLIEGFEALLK
Sequence of JAK2 (O60674 whole entry): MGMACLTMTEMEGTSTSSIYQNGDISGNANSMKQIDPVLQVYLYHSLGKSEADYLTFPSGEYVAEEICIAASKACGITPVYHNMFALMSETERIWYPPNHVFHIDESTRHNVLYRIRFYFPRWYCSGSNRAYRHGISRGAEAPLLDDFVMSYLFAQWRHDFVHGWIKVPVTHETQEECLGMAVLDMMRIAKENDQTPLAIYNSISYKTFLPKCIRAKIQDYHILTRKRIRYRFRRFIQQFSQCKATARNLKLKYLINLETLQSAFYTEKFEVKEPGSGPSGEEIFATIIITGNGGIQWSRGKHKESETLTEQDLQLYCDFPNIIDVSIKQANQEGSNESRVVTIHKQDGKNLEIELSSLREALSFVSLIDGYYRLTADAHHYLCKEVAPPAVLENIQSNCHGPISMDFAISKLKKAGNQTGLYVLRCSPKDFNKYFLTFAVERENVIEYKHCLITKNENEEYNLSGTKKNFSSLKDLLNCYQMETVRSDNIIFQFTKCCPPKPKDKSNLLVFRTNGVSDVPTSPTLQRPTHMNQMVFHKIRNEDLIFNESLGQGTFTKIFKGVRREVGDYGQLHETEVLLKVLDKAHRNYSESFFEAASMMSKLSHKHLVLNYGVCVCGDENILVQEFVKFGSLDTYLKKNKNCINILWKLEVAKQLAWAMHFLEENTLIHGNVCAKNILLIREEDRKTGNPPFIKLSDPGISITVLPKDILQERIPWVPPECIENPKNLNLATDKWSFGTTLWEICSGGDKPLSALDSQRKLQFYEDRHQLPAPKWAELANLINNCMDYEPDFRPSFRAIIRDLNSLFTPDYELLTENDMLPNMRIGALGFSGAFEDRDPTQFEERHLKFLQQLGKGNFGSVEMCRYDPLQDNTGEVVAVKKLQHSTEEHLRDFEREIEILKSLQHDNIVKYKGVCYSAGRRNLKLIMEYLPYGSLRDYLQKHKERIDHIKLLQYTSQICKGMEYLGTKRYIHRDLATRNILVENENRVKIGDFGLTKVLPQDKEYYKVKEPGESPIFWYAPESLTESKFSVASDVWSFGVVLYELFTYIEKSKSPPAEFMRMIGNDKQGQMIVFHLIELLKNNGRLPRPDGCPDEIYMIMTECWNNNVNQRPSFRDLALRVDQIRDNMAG

SMILES	JAK 1 (pKi) (JAK1)	THP-1 IL4 pIC50 [1, 4]	decrease in DAI score as compared with vehicle treated animals [2]	IC50 [1, 6]	IC50 [3, 7]	other results
Cc1cc(Nc2cc3ncccc3c(N[C@@H]3C[C@H]4CCC[C@@H](C3)N4CC(=O)N(C)C)n2)n[nH]1 [Example 1-38]	B (B represents a pKi value between 9 and 10 (Ki between 1 nM and 0.1 nM))	B (B represents a pEC50 value between 6.7 and 7.5 (EC50 between 200 nM and 32 nM))	statistically significant decrease	–	–	JAK 2 (pKi) (JAK2): B (B represents a pKi value between 9 and 10 (Ki between 1 nM and 0.1 nM)); JAK 3 (pKi) (JAK3): C (C represents a pKi value between 7 and 9 (Ki between 100 nM and 1 nM))
CCC(=O)N1[C@@H]2CC[C@H]1C[C@H](Nc1nc(Nc3cc(C)[nH]n3)cc3ncccc13)C2 [Example 2-1]	–	–	did not exhibit a statistically significant decrease	31.6 to 200 nM	31.6 to 200 nM	Ki (JAK1; [5]): 0.1 to 1 nM
Cc1cc(Nc2cc3ncccc3c(N[C@@H]3C[C@H]4CCC[C@@H](C3)N4C(=O)Cc3ccccc3)n2)n[nH]1 [Example 2-24]	B (B represents a pKi value between 9 and 10 (Ki between 1 nM and 0.1 nM))	A (A represents a pEC50 value≥7.5 (EC50≤32 nM))	did not exhibit a statistically significant decrease	–	–	JAK 2 (pKi) (JAK2): B (B represents a pKi value between 9 and 10 (Ki between 1 nM and 0.1 nM)); BEAS2B pIC50 [3, 8]: A (A represents a pEC50 value≥7.5 (EC50≤32 nM))
Cc1cc(Nc2cc3ncccc3c(N[C@@H]3C[C@H]4CC[C@@H](C3)N4S(=O)(=O)c3cccnc3)n2)n[nH]1 [Example 3, N^7-(5-methyl-1H-pyrazol-3-yl)-N^5-((1R,3s,5S)-8-(pyridin-3-ylsulfonyl)-8-azabicyclo[3.2.1]octan-3-yl)-1,6-naphthyridine-5,7-diamine]	–	–	statistically significant decrease	31.6 to 200 nM	< 31.6 nM	Ki (JAK2; [9]): 0.1 to 1 nM; Ki (JAK1; [5]): 0.1 to 1 nM
Cc1cc(Nc2cc3ncccc3c(N[C@@H]3C[C@H]4CCC[C@@H](C3)N4C(=O)CN(C)C)n2)n[nH]1 [Example 4, 2-(Dimethylamino)-1-((1R,3s,5S)-3-((7-((5-methyl-1H-pyrazol-3-yl)amino)-1,6-naphthyridin-5-yl)amino)-9-azabicyclo[3.3.1]nonan-9-yl)ethan-1-one]	–	–	statistically significant decrease	31.6 to 200 nM	–	Ki (JAK2; [9]): 0.1 to 1 nM; Ki (JAK1): 0.1 to 1 nM
Cc1cc(Nc2cc3ncccc3c(N[C@@H]3C[C@H]4CC[C@@H](C3)N4S(=O)(=O)C3CC3)n2)n[nH]1 [Example 4-4]	–	–	did not exhibit a statistically significant decrease	< 31.6 nM	< 31.6 nM	Ki (JAK2): 0.1 to 1 nM; Ki (JAK1; [5]): 0.1 to 1 nM
Cc1cc(Nc2cc3ncccc3c(N[C@@H]3C[C@H]4CC[C@@H](C3)N4S(=O)(=O)Cc3ccccc3)n2)n[nH]1 [Example 4-13]	B (B represents a pKi value between 9 and 10 (Ki between 1 nM and 0.1 nM))	B (B represents a pEC50 value between 6.7 and 7.5 (EC50 between 200 nM and 32 nM))	did not exhibit a statistically significant decrease	–	–	BEAS2B pIC50 [3, 8]: A (A represents a pEC50 value≥7.5 (EC50≤32 nM))
Cc1cc(Nc2cc3ncccc3c(N[C@@H]3C[C@H]4CCC[C@@H](C3)N4S(=O)(=O)C3CC3)n2)n[nH]1 [Example 4-18]	A (A represents a pKi value≥10 (Ki≤0.1 nM))	A (A represents a pEC50 value≥7.5 (EC50≤32 nM))	did not exhibit a statistically significant decrease	–	–	BEAS2B pIC50 [3, 8]: A (A represents a pEC50 value≥7.5 (EC50≤32 nM))
Cc1cc(Nc2cc3ncccc3c(N[C@@H]3C[C@H]4CCC[C@@H](C3)N4S(=O)(=O)CC3CC3)n2)n[nH]1 [Example 4-23]	–	A (A represents a pEC50 value≥7.5 (EC50≤32 nM))	did not exhibit a statistically significant decrease	–	–	BEAS2B pIC50 [3, 8]: A (A represents a pEC50 value≥7.5 (EC50≤32 nM))
Cc1cc(Nc2cc3nc(CO)ccc3c(N[C@@H]3C[C@H]4CC[C@@H](C3)N4CCC#N)n2)n[nH]1 [Example 5-11]	–	A (A represents a pEC50 value≥7.5 (EC50≤32 nM))	did not exhibit a statistically significant decrease	–	–	JAK 2 (pKi) (JAK2): A (A represents a pKi value≥10 (Ki≤0.1 nM)); BEAS2B pIC50 [3, 8]: B (B represents a pEC50 value between 6.7 and 7.5 (EC50 between 200 nM and 32 nM))
COCCS(=O)(=O)N1[C@@H]2CC[C@H]1C[C@H](Nc1nc(Nc3cc(C)[nH]n3)cc3ncccc13)C2 [Example 6, N^5-((1R,3s,5S)-8-((2-methoxyethyl)sulfonyl)-8-azabicyclo[3.2.1]octan-3-yl)-N^7-(5-methyl-1H-pyrazol-3-yl)-1,6-naphthyridine-5,7-diamine]	–	–	statistically significant decrease	–	–	–
COC(=O)c1cnc2cc(Nc3cc(C)[nH]n3)nc(N[C@@H]3C[C@H]4CCC[C@@H](C3)N4CCC#N)c2c1 [Example 6-47]	A (A represents a pKi value≥10 (Ki≤0.1 nM))	–	–	–	–	JAK 2 (pKi) (JAK2): A (A represents a pKi value≥10 (Ki≤0.1 nM)); THP-1 IL4 pIC50 [1, 10]: A (A represents a pEC50 value≥7.5 (EC50≤32 nM)); Tyk 2 (pKi) (Tyk2): B (B represents a pKi value between 9 and 10 (Ki between 1 nM and 0.1 nM)); BEAS2B pIC50 [3, 11]: A (A represents a pEC50 value≥7.5 (EC50≤32 nM)); JAK 3 (pKi) (JAK3): B (B represents a pKi value between 9 and 10 (Ki between 1 nM and 0.1 nM))
CCS(=O)(=O)N1[C@@H]2CC[C@H]1C[C@H](Nc1nc(Nc3cc(C)[nH]n3)cc3ncccc13)C2 [Example 7, N^5-((1R,3s,5S)-8-(ethylsulfonyl)-8-azabicyclo[3.2.1]octan-3-yl)-N^7-(5-methyl-1H-pyrazol-3-yl)-1,6-naphthyridine-5,7-diamine]	–	–	did not exhibit a statistically significant decrease	< 31.6 nM	< 31.6 nM	Ki (JAK2; [9]): 0.1 to 1 nM; Ki (Tyk2): 0.1 to 1 nM
Cc1cc(Nc2nc(N[C@@H]3C[C@H]4CCC[C@@H](C3)N4S(=O)(=O)c3ccccc3)c3cccnc3c2F)n[nH]1 [Example 8-11]	B (B represents a pKi value between 9 and 10 (Ki between 1 nM and 0.1 nM))	–	–	–	–	JAK 2 (pKi) (JAK2): B (B represents a pKi value between 9 and 10 (Ki between 1 nM and 0.1 nM)); THP-1 IL4 pIC50 [1, 10]: B (B represents a pEC50 value between 6.7 and 7.5 (EC50 between 200 nM and 32 nM)); Tyk 2 (pKi) (Tyk2): C (C represents a pKi value between 7 and 9 (Ki between 100 nM and 1 nM)); BEAS2B pIC50 [3, 11]: A (A represents a pEC50 value≥7.5 (EC50≤32 nM)); JAK 3 (pKi) (JAK3): C (C represents a pKi value between 7 and 9 (Ki between 100 nM and 1 nM))
Cc1cc(Nc2cc3ncccc3c(N[C@@H]3C[C@H]4CCC[C@@H](C3)N4S(=O)(=O)c3ccccc3)n2)n[nH]1 [Example 9, N^7-(5-methyl-1H-pyrazol-3-yl)-N^5-((1R,3s,5S)-9-(phenylsulfonyl)-9-azabicyclo[3.3.1]nonan-3-yl)-1,6-naphthyridine-5,7-diamine]	–	–	did not exhibit a statistically significant decrease	< 31.6 nM	< 31.6 nM	Ki (JAK2; [9]): 0.1 to 1 nM; Ki (JAK1; [5]): 0.1 to 1 nM; Ki (Tyk2): 0.1 to 1 nM
Cc1cc(Nc2cc3ncccc3c(N[C@@H]3C[C@H]4CCC[C@@H](C3)N4S(=O)(=O)N3CC(C#N)C3)n2)n[nH]1 [Example 11, 1-(((1R,3s,5S)-3-((7-((5-methyl-1H-pyrazol-3-yl)amino)-1,6-naphthyridin-5-yl)amino)-9-azabicyclo[3.3.1]nonan-9-yl)sulfonyl)azetidine-3-carbonitrile]	–	–	did not exhibit a statistically significant decrease	31.6 to 200 nM	< 31.6 nM	–
Cc1cc(Nc2cc3ncccc3c(N[C@@H]3C[C@H]4CC[C@@H](C3)N4S(=O)(=O)N3CC(C#N)C3)n2)n[nH]1 [Example 13, 1-(((1R,3s,5S)-3-((7-((5-methyl-1H-pyrazol-3-yl)amino)-1,6-naphthyridin-5-yl)amino)-8-azabicyclo[3.2.1]octan-8-yl)sulfonyl)azetidine-3-carbonitrile]	–	–	did not exhibit a statistically significant decrease	31.6 to 200 nM	31.6 to 200 nM	Ki (Tyk2): 0.1 to 1 nM
